Reference: patent US11247965B2 (VenatoRx Pharmaceuticals, Inc., priority 2017, dated 2022)
pEC50: −log10 of the molar value.

Legend:
[1] = In vitro cytotoxicity, MTT cell viability assay in HepG2 cells; type: cell-based; settings: human, Cytotoxicity CC50
Method in brief: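 Read-out: MTT formazan absorbance at 492 nm, expressed as % of vehicle signal; CC50 by 4-parameter non-linear regression. Parental HepG2, 20,000 cells/well, treated 7 days with compound from 30 μM down to 1.0 nM.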

[2] = tested on: HBV replication in HepAD38 cells; assay: Anti-HBV activity in HepAD38 cells, extracellular HBV DNA by QPCR; type: cell-based, HBV (genotype D, serotype ayw); settings: Hepatitis B virus, HePAD38, 168 h, read-out: Anti-HBV EC50, HepAD38 cells, extracellular HBV DNA by QPCR, 7 days of incubation
Method in brief: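 Seven-day compound exposure (30 μM down to 10 nM, half-log steps) after tetracycline withdrawal induced HBV replication in HepAD38 cells. Extracellular viral DNA measured by QPCR (copies/mL via standard curve), normalised to DMSO wells; EC50 from 4-parameter non-linear regression.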

Cn1cc(NC(=O)c2ccc(F)c(C(F)(F)C(=O)N3CCC(O)C(F)(F)C3)c2)cn1 (stereo not shown) [Example 179, 3-(2-(3,3-difluoro-4-hydroxypiperidin-1-yl)-1,1-difluoro-2-oxoethyl)-4-fluoro-N-(1-methyl-1H-pyrazol-4-yl)benzamide]
CC50 at 7 days [1]: > 30 µM | pEC50 [2]: 4.52 to 5.30

Cn1cc(NC(=O)c2ccc(F)c(C(F)(F)C(=O)N3[C@@H]4CC[C@H]3C[C@@H](O)C4)c2)cn1 [Example 180, 3-(1,1-difluoro-2-((1R,3r,5S)-3-hydroxy-8-azabicyclo[3.2.1]octan-8-yl)-2-oxoethyl)-4-fluoro-N-(1-methyl-1H-pyrazol-4-yl)benzamide]
CC50 at 7 days [1]: > 30 µM | pEC50 [2]: 4.52 to 5.30

Cn1cc(NC(=O)c2ccc(F)c(C(F)(F)C(=O)N3[C@@H]4CC[C@H]3C[C@H](O)C4)c2)cn1 [Example 181, 3-(1,1-difluoro-2-((1R,3s,5S)-3-hydroxy-8-azabicyclo[3.2.1]octan-8-yl)-2-oxoethyl)-4-fluoro-N-(1-methyl-1H-pyrazol-4-yl)benzamide]
CC50 at 7 days [1]: > 30 µM | pEC50 [2]: 4.52 to 5.30

Cn1cc(NC(=O)c2ccc(F)c(C(F)(F)C(=O)N3CCC(O)(CO)CC3)c2)cn1 [Example 182, 3-(1,1-difluoro-2-(4-hydroxy-4-(hydroxymethyl)piperidin-1-yl)-2-oxoethyl)-4-fluoro-N-(1-methyl-1H-pyrazol-4-yl)benzamide]
CC50 at 7 days [1]: > 30 µM | pEC50 [2]: 4.52 to 5.30

CC(C)n1cc(NC(=O)c2ccc(F)c(C(F)(F)C(=O)N3CCC(O)C(F)(F)C3)c2)cn1 (stereo not shown) [Example 183, 3-(2-(3,3-difluoro-4-hydroxypiperidin-1-yl)-1,1-difluoro-2-oxoethyl)-4-fluoro-N-(1-isopropyl-1H-pyrazol-4-yl)benzamide]
CC50 at 7 days [1]: > 30 µM | pEC50 [2]: 4.52 to 5.30

CC(C)n1cc(NC(=O)c2ccc(F)c(C(F)(F)C(=O)N3[C@@H]4CC[C@H]3C[C@@H](O)C4)c2)cn1 [Example 184, 3-(1,1-difluoro-2-((1R,3r,5S)-3-hydroxy-8-azabicyclo[3.2.1]octan-8-yl)-2-oxoethyl)-4-fluoro-N-(1-isopropyl-1H-pyrazol-4-yl)benzamide]
CC50 at 7 days [1]: > 30 µM | pEC50 [2]: 4.52 to 5.30

CC(C)n1cc(NC(=O)c2ccc(F)c(C(F)(F)C(=O)N3[C@@H]4CC[C@H]3C[C@H](O)C4)c2)cn1 [Example 185, 3-(1,1-difluoro-2-((1R,3s,5S)-3-hydroxy-8-azabicyclo[3.2.1]octan-8-yl)-2-oxoethyl)-4-fluoro-N-(1-isopropyl-1H-pyrazol-4-yl)benzamide]
CC50 at 7 days [1]: > 30 µM | pEC50 [2]: 4.52 to 5.30

CC(C)n1cc(NC(=O)c2ccc(F)c(C(F)(F)C(=O)N3CCC(O)(CO)CC3)c2)cn1 [Example 186, 3-(1,1-difluoro-2-(4-hydroxy-4-(hydroxymethyl)piperidin-1-yl)-2-oxoethyl)-4-fluoro-N-(1-isopropyl-1H-pyrazol-4-yl)benzamide]
CC50 at 7 days [1]: > 30 µM | pEC50 [2]: 4.52 to 5.30

O=C(Nc1cc(F)c(F)c(F)c1)c1ccc(F)c(C(F)(F)C(=O)N2CCC(O)C(F)(F)C2)c1 (stereo not shown) [Example 187, 3-(2-(3,3-difluoro-4-hydroxypiperidin-1-yl)-1,1-difluoro-2-oxoethyl)-4-fluoro-N-(3,4,5-trifluorophenyl)benzamide]
CC50 at 7 days [1]: 5 to 30 µM | pEC50 [2]: > 5.30

O=C(Nc1cc(F)c(F)c(F)c1)c1ccc(F)c(C(F)(F)C(=O)N2[C@@H]3CC[C@H]2C[C@H](O)C3)c1 [Example 188, 3-(1,1-difluoro-2-((1R,3s,5S)-3-hydroxy-8-azabicyclo[3.2.1]octan-8-yl)-2-oxoethyl)-4-fluoro-N-(3,4,5-trifluorophenyl)benzamide]
CC50 at 7 days [1]: 5 to 30 µM | pEC50 [2]: > 5.30

O=C(Nc1ccc(F)c(Br)c1)c1ccc(F)c(C(F)(F)C(=O)N2[C@@H]3CC[C@H]2C[C@H](O)C3)c1 [Example 189, N-(3-bromo-4-fluorophenyl)-3-(1,1-difluoro-2-((1R,3s,5S)-3-hydroxy-8-azabicyclo[3.2.1]octan-8-yl)-2-oxoethyl)-4-fluorobenzamide]
CC50 at 7 days [1]: 5 to 30 µM | pEC50 [2]: > 5.30

O=C(Nc1ccc(F)c(Br)c1)c1ccc(F)c(C(F)(F)C(=O)N2CCC(O)(CO)CC2)c1 [Example 190, N-(3-bromo-4-fluorophenyl)-3-(1,1-difluoro-2-(4-hydroxy-4-(hydroxymethyl)piperidin-1-yl)-2-oxoethyl)-4-fluorobenzamide]
CC50 at 7 days [1]: 5 to 30 µM | pEC50 [2]: > 5.30

N#Cc1cc(NC(=O)c2ccc(F)c(C(F)(F)C(=O)N3[C@@H]4CC[C@H]3C[C@H](O)C4)c2)ccc1F [Example 193, N-(3-cyano-4-fluorophenyl)-3-(1,1-difluoro-2-((1R,3s,5S)-3-hydroxy-8-azabicyclo[3.2.1]octan-8-yl)-2-oxoethyl)-4-fluorobenzamide]
CC50 at 7 days [1]: 5 to 30 µM | pEC50 [2]: > 5.30

N#Cc1cc(NC(=O)c2ccc(F)c(C(F)(F)C(=O)N3CCC(O)(CO)CC3)c2)ccc1F [Example 194, N-(3-cyano-4-fluorophenyl)-3-(1,1-difluoro-2-(4-hydroxy-4-(hydroxymethyl)piperidin-1-yl)-2-oxoethyl)-4-fluorobenzamide]
CC50 at 7 days [1]: 5 to 30 µM | pEC50 [2]: > 5.30

O=C(Nc1ccnc(Cl)c1)c1ccc(F)c(C(F)(F)C(=O)N2CCC(O)C(F)(F)C2)c1 (stereo not shown) [Example 195, N-(2-chloropyridin-4-yl)-3-(2-(3,3-difluoro-4-hydroxypiperidin-1-yl)-1,1-difluoro-2-oxoethyl)-4-fluorobenzamide]
CC50 at 7 days [1]: < 5 µM | pEC50 [2]: > 5.30

O=C(Nc1ccnc(Cl)c1)c1ccc(F)c(C(F)(F)C(=O)N2[C@@H]3CC[C@H]2C[C@@H](O)C3)c1 [Example 196, N-(2-chloropyridin-4-yl)-3-(1,1-difluoro-2-((1R,3r,5S)-3-hydroxy-8-azabicyclo[3.2.1]octan-8-yl)-2-oxoethyl)-4-fluorobenzamide]
CC50 at 7 days [1]: < 5 µM | pEC50 [2]: > 5.30

O=C(Nc1ccnc(Cl)c1)c1ccc(F)c(C(F)(F)C(=O)N2[C@@H]3CC[C@H]2C[C@H](O)C3)c1 [Example 197, N-(2-chloropyridin-4-yl)-3-(1,1-difluoro-2-((1R,3s,5S)-3-hydroxy-8-azabicyclo[3.2.1]octan-8-yl)-2-oxoethyl)-4-fluorobenzamide]
CC50 at 7 days [1]: < 5 µM | pEC50 [2]: > 5.30

O=C(Nc1ccnc(Cl)c1)c1ccc(F)c(C(F)(F)C(=O)N2CCC(O)(CO)CC2)c1 [Example 198, N-(2-chloropyridin-4-yl)-3-(1,1-difluoro-2-(4-hydroxy-4-(hydroxymethyl)piperidin-1-yl)-2-oxoethyl)-4-fluorobenzamide]
CC50 at 7 days [1]: 5 to 30 µM | pEC50 [2]: > 5.30

O=C(Nc1ccc(F)c(F)c1)c1ccc(F)c(C(F)(F)C(=O)N2[C@@H]3CC[C@H]2C[C@H](O)C3)c1 [Example 199, 3-(1,1-difluoro-2-((1R,3s,5S)-3-hydroxy-8-azabicyclo[3.2.1]octan-8-yl)-2-oxoethyl)-N-(3,4-difluorophenyl)-4-fluorobenzamide]
CC50 at 7 days [1]: 5 to 30 µM | pEC50 [2]: > 5.30

Cc1cc(NC(=O)c2ccc(F)c(C(F)(F)C(=O)N3[C@@H]4CCC[C@H]3CC(=O)C4)c2)ccc1F [Example 200, 3-(1,1-difluoro-2-oxo-2-((1R,5S)-3-oxo-9-azabicyclo[3.3.1]nonan-9-yl)ethyl)-4-fluoro-N-(4-fluoro-3-methylphenyl)benzamide]
CC50 at 7 days [1]: 5 to 30 µM | pEC50 [2]: > 5.30

Cc1cc(NC(=O)c2ccc(F)c(C(F)(F)C(=O)N3[C@@H]4COC[C@H]3CC(=O)C4)c2)ccc1F [Example 201, 3-(1,1-difluoro-2-oxo-2-((1R,5S)-7-oxo-3-oxa-9-azabicyclo[3.3.1]nonan-9-yl)ethyl)-4-fluoro-N-(4-fluoro-3-methylphenyl)benzamide]
CC50 at 7 days [1]: 5 to 30 µM | pEC50 [2]: > 5.30

Cc1cc(NC(=O)c2ccc(F)c(C(F)(F)C(=O)N3[C@@H]4CCC[C@H]3CC(O)C4)c2)ccc1F (stereo partly drawn) [Example 202, 3-(1,1-difluoro-2-((1R,5S)-3-hydroxy-9-azabicyclo[3.3.1]nonan-9-yl)-2-oxoethyl)-4-fluoro-N-(4-fluoro-3-methylphenyl)benzamide]
CC50 at 7 days [1]: 5 to 30 µM | pEC50 [2]: > 5.30

Cc1cc(NC(=O)c2ccc(F)c(C(F)(F)C(=O)N3[C@@H]4COC[C@H]3CC(O)C4)c2)ccc1F (stereo partly drawn) [Example 203, 3-(1,1-difluoro-2-((1R,5S)-7-hydroxy-3-oxa-9-azabicyclo[3.3.1]nonan-9-yl)-2-oxoethyl)-4-fluoro-N-(4-fluoro-3-methylphenyl)benzamide]
CC50 at 7 days [1]: 5 to 30 µM | pEC50 [2]: > 5.30

Cc1cc(NC(=O)c2ccc(F)c(C(F)(F)C(=O)N3CCc4[nH]ncc4C3)c2)ccc1F [Example 204, 3-(1,1-difluoro-2-oxo-2-(1,4,6,7-tetrahydro-5H-pyrazolo[4,3-c]pyridin-5-yl)ethyl)-4-fluoro-N-(4-fluoro-3-methylphenyl)benzamide]
CC50 at 7 days [1]: 5 to 30 µM | pEC50 [2]: > 5.30

Cc1ccc(C(=O)Nc2cc(F)c(F)c(F)c2)cc1C(F)(F)C(=O)N1[C@@H]2CC[C@H]1C[C@H](O)C2 [Example 205, 3-(1,1-difluoro-2-((1R,3s,5S)-3-hydroxy-8-azabicyclo[3.2.1]octan-8-yl)-2-oxoethyl)-4-methyl-N-(3,4,5-trifluorophenyl)benzamide]
CC50 at 7 days [1]: 5 to 30 µM | pEC50 [2]: 4.52 to 5.30

Cc1ccc(C(=O)Nc2ccc(F)c(Cl)c2)cc1C(F)(F)C(=O)N1[C@@H]2CC[C@H]1C[C@H](O)C2 [Example 206, N-(3-chloro-4-fluorophenyl)-3-(1,1-difluoro-2-((1R,3s,5S)-3-hydroxy-8-azabicyclo[3.2.1]octan-8-yl)-2-oxoethyl)-4-methylbenzamide]
CC50 at 7 days [1]: 5 to 30 µM | pEC50 [2]: > 5.30
